Here are results for 14 compounds from US7807669B2, “Biaromatic compounds which activate PPARγ type receptors and cosmetic/pharmaceutical compositions comprised thereof” (Galderma Research & Development, priority 2002, dated 2010).

Type in all cases: cell-based
For one test, the target named is T1, PPARα (Homo sapiens, UniProt Q07869).
T1 construct: The reporter is ERE-βGlob-Luc-SV-Neo
T1 sequence (Q07869 239-468 limits assumed): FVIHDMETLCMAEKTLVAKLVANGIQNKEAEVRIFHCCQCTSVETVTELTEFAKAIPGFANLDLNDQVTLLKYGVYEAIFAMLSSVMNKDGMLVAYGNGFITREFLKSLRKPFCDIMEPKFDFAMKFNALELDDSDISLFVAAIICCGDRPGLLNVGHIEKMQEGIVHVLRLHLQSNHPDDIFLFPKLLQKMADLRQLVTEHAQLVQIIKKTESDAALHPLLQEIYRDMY
As to the kind of experiment: Crossed-curve PPAR transactivation assay (PPARα). The following applies: HeLN cells stably transfected with ERE-βGlob-Luc-SV-Neo and Gal-hPPARα; crossed curves against reference agonist, Schild regression; n.a. means not active; read-out: PPAR alpha Kd app. The procedure: (§1) Activation of the receptors by an agonist (activator) in HeLN cells leads to the expression of a reporter gene, luciferase, which, in the presence of a substrate, generates light. The modulation of the receptors is measured by quantifying the luminescence produced after incubation of the cells in the presence of a reference agonist. The ligands will displace the agonist from its site. The measurement of the activity is performed by quantifying the light produced. This measurement makes it possible to determine the modulatory activity of the compounds according to the invention by determining the constant that is the affinity of the molecule for the receptor. Since this value can fluctuate depending on the basal activity and the expression of the receptor, it is referred to as Kd apparent (KdApp in nM).
(§2) To determine this constant, “crossed curves” for the test product, against a reference agonist, are prepared using a 96-well plate: 10 concentrations of the test product plus a concentration 0 are arranged in a line, and 7 concentrations of the agonist plus a concentration 0 are arranged in a column. This is 88 measurement points for 1 product and 1 receptor. The remaining 8 wells are used for repeatability controls.
(§3) Measurements are also taken for total agonist controls with the same products.
(§4) The HeLN cell lines used are stable transfectants containing the plasmids ERE-βGlob-Luc-SV-Neo (reporter gene) and PPAR (α, δ, γ) Gal-hPPAR. These cells are seeded in 96-well plates at a rate of 10 000 cells per well in 100 μl of DMEM medium without phenol red and supplemented with 10% of defatted calf serum. The plates are then incubated for 16 hours at 37° C. and 7% CO2.
(§5) The various dilutions of the test products and of the reference ligand are added at a rate of 5 μl per well. The plates are then incubated for 18 hours at 37° C. and 7% CO2. The culture medium is removed by turning over and 100 μl of a 1:1 PBS/luciferin mixture are added to each well. After 5 minutes, the plates are read using the luminescence reader.

A further test concerns the target T2, PPARδ (Homo sapiens, UniProt Q03181).
T2 construct: The reporter is ERE-βGlob-Luc-SV-Neo
T2 sequence (Q03181 211-441 limits assumed): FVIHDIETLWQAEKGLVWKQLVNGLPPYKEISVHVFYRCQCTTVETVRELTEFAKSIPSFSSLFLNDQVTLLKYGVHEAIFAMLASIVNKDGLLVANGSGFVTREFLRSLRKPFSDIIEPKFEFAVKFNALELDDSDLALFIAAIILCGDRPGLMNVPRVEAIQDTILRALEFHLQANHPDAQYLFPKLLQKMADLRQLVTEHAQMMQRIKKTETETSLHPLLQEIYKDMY
The test is described as follows: Crossed-curve PPAR transactivation assay (PPARδ). Conditions: HeLN cells stably transfected with ERE-βGlob-Luc-SV-Neo and Gal-hPPARδ; crossed curves against reference agonist, Schild regression; n.a. means not active; read-out: PPAR delta Kd app. The protocol: as §1
To determine this constant, “crossed curves” for the test product, against a reference agonist, are prepared using a 96-well plate: 10 concentrations of the test product plus a concentration 0 are arranged in a line, and 7 concentrations of the agonist plus a concentration 0 are arranged in a column. This is 88 measurement points for 1 product and 1 receptor. […]
The various dilutions of the test products and of the reference ligand are added at a rate of 5 μl per well. […] After 5 minutes, the plates are read using the luminescence reader.

The target in a further test is T3, PPARγ (Homo sapiens, UniProt P37231).
T3 construct: The reporter is ERE-βGlob-Luc-SV-Neo
T3 sequence (P37231 238-505 limits assumed): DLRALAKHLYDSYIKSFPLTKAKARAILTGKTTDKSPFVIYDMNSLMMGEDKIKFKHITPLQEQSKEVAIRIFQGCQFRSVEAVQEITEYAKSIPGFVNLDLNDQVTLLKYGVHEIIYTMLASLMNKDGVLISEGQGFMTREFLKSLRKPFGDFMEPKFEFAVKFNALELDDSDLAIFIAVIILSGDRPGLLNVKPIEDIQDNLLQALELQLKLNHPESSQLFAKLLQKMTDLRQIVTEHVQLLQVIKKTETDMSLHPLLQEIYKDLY
As to the kind of experiment: Crossed-curve PPAR transactivation assay (PPARγ). Conditions: HeLN cells stably transfected with ERE-βGlob-Luc-SV-Neo and Gal-hPPARγ; crossed curves against reference agonist, Schild regression; n.a. means not active; read-out: PPAR gamma Kd app. The protocol: as §1, §2, §3, §4, §5

For the compound `CCCCCCCNC(=O)N(C)c1cccc(-c2ccc(C[C@H](Nc3ccccc3C(=O)c3ccccc3)C(=O)NCCCCC)cc2)c1` [Example 8, (S)-2-(2-benzoylphenylamino)-3-[3′-(3-heptyl-1-methylureido)biphenyl-4-yl]-N-pentylpropionamide], the Kd on PPARα was 2000 nM; on PPARδ, 500 nM; on PPARγ, 30 nM.

As for `CCCCCCCNC(=O)N(C)c1cccc(-c2ccc(C[C@H](Nc3ccccc3C(=O)c3ccccc3)C(=O)OCCCC)cc2)c1` [Example 39, butyl (S)-2-(2-benzoylphenylamino)-3-[3′-(3-heptyl-1-methylureido)biphenyl-4-yl]propionate], the Kd at PPARγ turned out to be 30 nM.

For `CCCCCCCNC(=O)N(C)c1cccc(-c2ccc(C[C@H](Nc3ccccc3C(=O)c3ccccc3)C(=O)N(Cc3ccccc3)Cc3ccccc3)cc2)c1` [Example 13, (S)-2-(2-benzoylphenylamino)-N,N-dibenzyl-3-[3′-(3-heptyl-1-methylureido)biphenyl-4-yl]propionamide], on PPARγ, the Kd stood at 8 nM.

`CC(=CC(=O)c1ccccc1)N[C@@H](Cc1ccc(-c2cccc(CN(C)C(=O)c3ccccc3)c2)cc1)C(=O)O` [Example 31, (S)-3-{3′-[(benzoylmethylamino)methyl]biphenyl-4-yl}-2-(1-methyl-3-oxo-3-phenylpropenylamino)propionic acid]: the Kd at PPARγ came out at 15 nM.

For `CCCCCCCNC(=O)N(C)c1cccc(-c2ccc(C[C@H](Nc3ccccc3C(=O)c3ccccc3)C(=O)NCCNC(C)=O)cc2)c1` [Example 10, (S)—N-(2-acetylaminoethyl)-2-(2-benzoylphenylamino)-3-[3′-(3-heptyl-1-methylureido)biphenyl-4-yl]propionamide], the Kd at PPARα came out at 2000 nM; on PPARγ, 60 nM.

For `CCCCCCCNC(=O)N(C)c1cccc(-c2ccc(C[C@H](Nc3ccccc3C(=O)c3ccccc3)C(=O)N(C)Cc3ccccc3)cc2)c1` [Example 20, (S)-2-(2-benzoylphenylamino)-N-benzyl-3-[3′-(3-heptyl-1-methylureido)biphenyl-4-yl]-N-methylpropionamide], on PPARγ, the Kd came out at 30 nM.

As for `CCCCCCCNC(=O)N(C)c1cccc(-c2ccc(C[C@H](Nc3ccccc3C(=O)c3ccccc3)c3nnc(CCC)o3)cc2)c1` [Example 3, (S)-1-{4′-[2-(2-benzoylphenylamino)-2-(5-propyl[1,3,4]oxadiazol-2-yl)ethyl]biphenyl-3-yl}-3-heptyl-1-methylurea], the Kd at PPARγ was determined as 30 nM.

As for `CCCCCCCNC(=O)N(C)c1cccc(-c2ccc(C[C@H](Nc3ccccc3C(=O)c3ccccc3)C(=O)N3CCC(C)CC3)cc2)c1` [Example 9, (S)-1-{4′-[2-(2-benzoylphenylamino)-3-(4-methylpiperid-1-yl)-3-oxopropyl]biphenyl-3-yl}-3-heptyl-1-methylurea], the Kd at PPARα was found to be 2000 nM; at PPARγ, 30 nM.

For the compound `CN(Cc1cccc(-c2ccc(C[C@H](Nc3ccccc3C(=O)c3ccccc3)C(=O)O)cc2)c1)C(=O)c1ccccc1` [Example 29, (S)-3-{3′-[(benzoylmethylamino)methyl]biphenyl-4-yl}-2-(2-benzoylphenylamino)propionic acid], the Kd on PPARα stood at 2000 nM; on PPARγ, 500 nM.

Turning to `CCCCCCCNC(=O)N(C)c1cccc(-c2ccc(C[C@H](Nc3ccccc3C(=O)c3ccccc3)C(=O)N3CCN(C)CC3)cc2)c1` [Example 16, (S)-1-{4′-[2-(2-benzoylphenylamino)-3-(4-methylpiperazin-1-yl)-3-oxopropyl]biphenyl-3-yl}-3-heptyl-1-methylurea], on PPARγ, the Kd was 30 nM.

On to `CCCCCCCNC(=O)N(C)c1cccc(-c2ccc(C[C@H](Nc3ccccc3C(=O)c3ccccc3)C(=O)NCc3ccccn3)cc2)c1` [Example 18, (S)-2-(2-benzoylphenylamino)-3-[3′-(3-heptyl-1-methylureido)biphenyl-4-yl]-N-pyridin-2-ylmethylpropionamide], for which the Kd on PPARγ was 60 nM.

`CCCCCCCNC(=O)N(C)c1cccc(-c2ccc(C[C@H](Nc3ccccc3C(=O)c3ccccc3)C(=O)N(C)CCc3ccccc3)cc2)c1` [Example 27, (S)-2-(2-benzoylphenylamino)-3-[3′-(3-heptyl-1-methylureido)biphenyl-4-yl]-N-methyl-N-phenethylpropionamide]: the values for the Kd on PPARα and at PPARγ were 4000 nM and 15 nM, respectively.

On to `CCCCCCCNC(=O)N(C)c1cccc(-c2ccc(C[C@H](Nc3ccccc3C(=O)c3ccccc3)C(=O)NCCN(C)C)cc2)c1` [Example 26, (S)-2-(2-benzoylphenylamino)-N-(2-dimethylaminoethyl)-3-[3′-(3-heptyl-1-methylureido)biphenyl-4-yl]propionamide], for which the Kd on PPARγ turned out to be 60 nM.

Consider `CN(C(=O)Nc1ccc2ccccc2c1)c1cccc(-c2ccc(C[C@H](Nc3ccccc3C(=O)c3ccccc3)C(=O)O)cc2)c1` [Example 6, (S)-2-(2-benzoylphenylamino)-3-[3′-(1-methyl-3-naphthalen-2-ylureido)biphenyl-4-yl]propionic acid], for which the Kd on PPARγ was found to be 4 nM.
